Laboratory results reported in patent publication US9828339B2, “Biphenyl derivatives and methods for preparing same” (DONG-A ST CO., LTD, priority 2013, dated 2017).
pKi: −log10 of the molar value.

Key:
[1] = molecular target: T1, human muscarinic M3 receptor (Homo sapiens (Human), UniProt P20309); experiment: Antagonism assay on human muscarinic M3 receptor (carbachol-induced intracellular calcium, FLIPR Calcium 5, transfected Cos-7 cells); assay type: cell-based; conditions: functional inhibitory constant; carbachol-induced intracellular calcium in Cos-7 cells transfected with human M3 receptor
T1 sequence (P20309 whole entry): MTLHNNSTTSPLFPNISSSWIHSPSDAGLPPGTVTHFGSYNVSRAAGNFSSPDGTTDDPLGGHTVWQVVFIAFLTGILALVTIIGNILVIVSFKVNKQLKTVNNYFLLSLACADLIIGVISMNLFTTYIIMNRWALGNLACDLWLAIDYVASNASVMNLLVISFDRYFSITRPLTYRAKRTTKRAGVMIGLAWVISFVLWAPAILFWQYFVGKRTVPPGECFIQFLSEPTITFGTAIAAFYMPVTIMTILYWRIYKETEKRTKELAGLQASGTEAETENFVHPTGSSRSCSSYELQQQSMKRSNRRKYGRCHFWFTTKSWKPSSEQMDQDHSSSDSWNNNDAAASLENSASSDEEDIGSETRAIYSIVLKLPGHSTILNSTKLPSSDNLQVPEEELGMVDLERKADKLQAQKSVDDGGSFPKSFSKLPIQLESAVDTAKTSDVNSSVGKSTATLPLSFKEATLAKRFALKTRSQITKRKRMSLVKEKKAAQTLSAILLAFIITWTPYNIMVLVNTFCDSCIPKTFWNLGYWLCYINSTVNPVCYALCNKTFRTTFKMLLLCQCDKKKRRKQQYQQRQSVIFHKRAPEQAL
In short: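 Ki values converted by Cheng-Prusoff from IC50 against carbachol-evoked calcium rise, measured with FLIPR Calcium 5 in human M3-transfected Cos-7 cells. Compounds added 3 min before carbachol; signal scaled 0% before, 100% after agonist.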

Sprague-Dawley (SD) rats = experiment: Acute toxicity test for oral administration on rats; assay type: in vivo, rat; conditions: observed for 4 days
Description: [Experimental Example 4] Acute Toxicity Test for Oral Administration on Rats
In order to confirm acute toxicity of the compounds of the present invention, following experiment was conducted. A low-dose group, a medi-dose group and a high-dose group, wherein the compounds of Examples were administered 100 mg/kg, 300 mg/kg and 1000 mg/kg respectively, were prepared. Methyl cellulose solution (0.5%) was prepared and orally administered to 3 rats of each group (i.e. both sexes of 6-week old Sprague-Dawley (SD) rats; male rats in 142-143 g; female rats in 126.3-127.3 g) in a volume of 10 mL/kg. Mortality, clinical signs and weight and the like were measured for 4 days, and discovered approximate lethal dose (ALD) therefrom were explained in Table 30 below.

[2] = system: rhythmic bladder contractions; experiment: Rhythmic bladder contractions in rats (in vivo); parameters: species or system rat; conditions: 0.3 mpk, intravenous, female Sprague-Dawley rats; amplitude reduction of bladder contractions
In short: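 Halothane-anaesthetised female Sprague-Dawley rats had the bladder catheterised via the urethra, emptied, then slowly filled with 37 °C saline until stable rhythmic contractions, with pressure recorded by transducer. Compounds were given intravenously via the tail vein. Inhibition was measured as reduction in contraction amplitude.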

[3] = molecular target: T1, human muscarinic M3 receptor; experiment: Binding assay on human muscarinic M3 receptor ([3H]-methyl scopolamine displacement); conditions: membranes overexpressing human M3 receptor, Ki from IC50 by Cheng-Prusoff, read-out: Binding Affinity to M3 Receptor, Ki
In short: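 Displacement of [3H]-methyl scopolamine from membranes overexpressing human M3, in Tris-HCl, 25 °C, 120 min; filter-bound radioactivity counted. Nonspecific binding with 5 μM atropine; Ki from IC50 via Cheng-Prusoff.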

Row | SMILES | pKi [1] | Approximate Lethal Dose (ALD) (Sprague-Dawley (SD) rats) | Inhibition of Rhythmic bladder contraction in rats [2] | pKi [3]
1 | CN1CCCC1CCOC(=O)Nc1ccc(F)cc1-c1ccc(F)c(Cl)c1 (stereo not drawn) [Example 53, 2-(1-methylpyrrolidin-2-yl)ethyl(3′-chloro-4′,5-difluoro-[1,1′-biphenyl]-2-yl)carbamate] | 9.24 | >1000 mg/kg | 28.0 ± 5.0% | 8.87
2 | CN1CC[C@@H](COC(=O)Nc2ccccc2-c2ccccc2)C1 [Example 89, (R)-(1-methylpyrrolidin-3-yl)methyl [1,1′-biphenyl]-2-ylcarbamate] | 9.80 | >1000 mg/kg | 33.9 ± 3.5% | 8.61
3 | CN1CC[C@H](COC(=O)Nc2ccccc2-c2ccccc2)C1 [Example 90, (S)-(1-methylpyrrolidin-3-yl)methyl [1,1′-biphenyl]-2-ylcarbamate] | 9.77 | >1000 mg/kg | 27.4 ± 1.9% | 8.71
4 | CN1CC[C@@H](COC(=O)Nc2ccccc2-c2cc(F)cc(F)c2)C1 [Example 91, (R)-(1-methylpyrrolidin-3-yl)methyl (3′,5′-difluoro-[1,1′-biphenyl]-2-yl)carbamate] | 8.88 | >1000 mg/kg | 25.2 ± 2.5% | 8.35
5 | Cc1cccc(-c2ccccc2NC(=O)OC[C@@H]2CCN(C)C2)c1 [Example 100, (R)-(1-methylpyrrolidin-3-yl)methyl(3′-methyl-[1,1′-biphenyl]-2-yl)carbamate] | 9.19 | >1000 mg/kg | 26.0 ± 6.0% | 8.61
6 | CN1CC[C@@H](COC(=O)Nc2ccccc2-c2ccc(F)c(Cl)c2)C1 [Example 136, (R)-(1-methylpyrrolidin-3-yl)-methyl (3′-chloro-4′-fluoro-[1,1′-biphenyl]-2-yl)carbamate] | 9.60 | >1000 mg/kg | 33.2 ± 4.0% | 8.80
7 | CN1CC[C@@H](COC(=O)Nc2ccc(F)cc2-c2ccc(F)c(Cl)c2)C1 [Example 143, (R)-(1-methylpyrrolidin-3-yl)methyl(3′-chloro-4′,5-difluoro-[1,1′-biphenyl]-2-yl)carbamate] | 9.17 | >1000 mg/kg | 24.3 ± 5.5% | 8.95
8 | CCN1CC[C@@H](COC(=O)Nc2ccccc2-c2ccc(F)c(Cl)c2)C1 [Example 150, (R)-(1-ethylpyrrolidin-3-yl)methyl (3′-chloro-4′-fluoro-[1,1′-biphenyl]-2-yl)carbamate] | 8.87 | >1000 mg/kg | 25.1 ± 2.5% | 8.25
9 | Cc1cccc(-c2ccccc2NC(=O)OC[C@@H]2CCCN2C)c1 [Example 199, (S)-(1-methylpyrrolidin-2-yl)methyl(3′-methyl-[1,1′-biphenyl]-2-yl)carbamate] | 9.59 | >1000 mg/kg | 27.8 ± 4.5% | 9.10
